The source of these data is patent US20210267900A1, “PROCESSING METHOD FOR DRUG SUBSTANCE PARTICLES OF NON-UNIFORM PARTICLE SIZE” (NIPPON ZOKI PHARMACEUTICAL CO., LTD., priority 2018, published 2021).

The structures appear in SMILES notation. Values joined by “and” are separate entries in the source; they are usually repeats but may differ in a detail not shown here. Equal entries are not always repeated.

A short description of data set [1]: Particle size distribution by sieving method (ro-tap-type sieve shaker). It counts as physicochemical. The conditions noted are these: drug substance before processing, % by weight.
Source text: (§1) In the present invention, the particle size distribution of each of the drug substance (A) and the powder (B) can be determined by a weight-based distribution evaluation by a sieving method (measurement device: a ro-tap-type sieve shaker or the like) and a volume-based distribution evaluation by a laser-diffraction method (also referred to as “a laser diffraction scattering method”) (measurement device: Mastersizer 2000 or Mastersizer 3000 [Malvern] or the like, dispersion compression air pressure: 2 to 4 bars).
Data set [2] is described as follows: Particle size distribution by laser-diffraction method (Mastersizer 2000). It counts as physicochemical. The settings on record: drug substance before processing.
Source text: as §1

Take `CC(C)Cc1ccc(C(C)C(=O)O)cc1` (stereo not shown) [Ibuprofen, ibuprofen]: in data set [1], the “particles each having a particle size of 60 μm or less” value is 27.2% and the “particles each having a particle size of 500 μm or more” value came out at 11%.
With `CC(C)C[C@H](CN)CC(=O)O` [Pregabalin, pregabalin], the “particles each having a particle size of 60 μm or less” value in data set [1] came out at 14.5%.
For `CC(=O)Nc1ccc(O)cc1` [Acetaminophen, acetaminophen], in data set [2], the “particles each having a particle size of 50 μm or less” value is 25.11 % by volume and 21.08 % by volume; the “particles each having a particle size of 500 μm or more” value is 3.57 % by volume and 5.82 % by volume. Moreover, in data set [1], the “particles each having a particle size of 60 μm or less” value was determined as 32.9% and the “particles each having a particle size of 500 μm or more” value is listed as 14%.
